Assay results taken from ChEMBL document CHEMBL1201862, “PubChem BioAssay data set” (2004).
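How tested: cells in 96-well plates exposed to compound for 48 hours at five concentrations. Here, GI50 denotes the concentration required for 50% inhibition of growth.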 The source made the active and inactive calls. No stated cut-off is given here; in the data, active = GI50 up to about 1.1 µM and inactive = higher.

How the values were obtained:
Test in all cases: growth of human tumour cells (NCI), 48 h
RXF 393 = system: RXF 393
LOX IMVI = system: LOX IMVI
HCT-15 = system: HCT-15
SNB-19 = system: SNB-19
UO-31 = system: UO-31
SW-620 = system: SW-620
HT-29 = system: HT-29
SNB-75 = system: SNB-75
KM12 = system: KM12
Malme-3M = system: Malme-3M
IGROV-1 = system: IGROV-1
RPMI-8226 = system: RPMI-8226
HOP-92 = system: HOP-92
OVCAR-4 = system: OVCAR-4
OVCAR-5 = system: OVCAR-5
SR = system: SR
CCRF-CEM = system: CCRF-CEM

Row | SMILES | GI50 (RXF 393) | GI50 (LOX IMVI) | GI50 (HCT-15) [µM] | GI50 (SNB-19) | GI50 (UO-31) | GI50 (SW-620) | GI50 (HT-29) | GI50 (SNB-75) | GI50 (KM12) | GI50 (Malme-3M) | GI50 (IGROV-1) | GI50 (RPMI-8226) | GI50 (HOP-92) | GI50 (OVCAR-4) | GI50 (OVCAR-5) | GI50 (SR) | GI50 (CCRF-CEM)
1 | CC(=O)OC1COC(n2c(=S)n(-c3ccc(C)cc3)c(=O)c3ccccc32)C(OC(C)=O)C1OC(C)=O (stereo unspecified) | 67.3 µM (inactive) | > 100 µM (inactive) | > 100 | > 100 µM (inactive) | > 100 µM (inactive) | > 100 µM (inactive) | > 100 µM (inactive) | 63.2 µM (inactive) | > 100 µM (inactive) | > 100 µM (inactive) | > 100 µM (inactive) | 47.5 µM (inactive) | 45.8 µM (inactive) | > 100 µM (inactive) | > 100 µM (inactive) |  | 
2 | COC(=O)c1ccccc1N1C(=O)Cc2ccccc2C1=O | 42.3 µM (inactive) |  | > 100 | > 100 µM (inactive) | > 100 µM (inactive) | > 100 µM (inactive) | > 100 µM (inactive) | 21.6 µM (inactive) | > 100 µM (inactive) | > 100 µM (inactive) | > 100 µM (inactive) | > 100 µM (inactive) |  |  | > 100 µM (inactive) | > 100 µM (inactive) | 
3 | Cc1[nH]c2ccccc2c1-c1n[nH]c(=O)c2ccccc12 | 12.9 µM (inactive) |  | 5.33 |  | 17.3 µM (inactive) | 16.1 µM (inactive) | 24.1 µM (inactive) | 15.3 µM (inactive) | 11.3 µM (inactive) | 22.3 µM (inactive) | 31.5 µM (inactive) | 20.8 µM (inactive) |  | 29.3 µM (inactive) | 46.5 µM (inactive) |  | 22.9 µM (inactive)
4 | CC(C)OC(=O)c1cccnc1/C=N/O |  | > 100 µM (inactive) | > 100 | > 100 µM (inactive) | > 100 µM (inactive) | > 100 µM (inactive) | > 100 µM (inactive) | > 100 µM (inactive) | > 100 µM (inactive) | > 100 µM (inactive) | > 100 µM (inactive) | > 100 µM (inactive) |  |  | > 100 µM (inactive) |  | > 100 µM (inactive)
5 | CCOC(=O)/C=C1\CCCC12OCCO2 | > 100 µM (inactive) |  | > 100 | > 100 µM (inactive) | > 100 µM (inactive) | > 100 µM (inactive) |  | 77.3 µM (inactive) | > 100 µM (inactive) | > 100 µM (inactive) | > 100 µM (inactive) | 49.7 µM (inactive) |  | > 100 µM (inactive) |  | 25.8 µM (inactive) | > 100 µM (inactive)
6 | CNC(C)(C)Cc1ccc(Cl)cc1 | > 100 µM (inactive) | > 100 µM (inactive) |  |  |  | > 100 µM (inactive) | > 100 µM (inactive) | > 100 µM (inactive) | > 100 µM (inactive) | > 100 µM (inactive) | > 100 µM (inactive) | > 100 µM (inactive) |  | > 100 µM (inactive) |  |  | > 100 µM (inactive)
7 | NC(=O)C(=O)C1C(=O)N(c2ccccc2)N=C1N (stereo unspecified) |  | > 100 µM (inactive) | > 100 | > 100 µM (inactive) | > 100 µM (inactive) | > 100 µM (inactive) | > 100 µM (inactive) | > 100 µM (inactive) | > 100 µM (inactive) | > 100 µM (inactive) | > 100 µM (inactive) | > 100 µM (inactive) | > 100 µM (inactive) | > 100 µM (inactive) | > 100 µM (inactive) | > 100 µM (inactive) | 
8 | CC(C)C(C(=O)O)N(CC1(O)OCC(O)C(O)C1O)N=O (stereo unspecified) | > 100 µM (inactive) | > 100 µM (inactive) |  |  | > 100 µM (inactive) | > 100 µM (inactive) | > 100 µM (inactive) | > 100 µM (inactive) | > 100 µM (inactive) | > 100 µM (inactive) | > 100 µM (inactive) | > 100 µM (inactive) | > 100 µM (inactive) |  | > 100 µM (inactive) |  | > 100 µM (inactive)
9 | CC(=O)OCCOCNC(=S)N/N=C/c1cc(Br)cs1 | > 100 µM (inactive) | > 100 µM (inactive) | > 100 | > 100 µM (inactive) | > 100 µM (inactive) | > 100 µM (inactive) | > 100 µM (inactive) | > 100 µM (inactive) | > 100 µM (inactive) | > 100 µM (inactive) | > 100 µM (inactive) | > 100 µM (inactive) |  | > 100 µM (inactive) | > 100 µM (inactive) | > 100 µM (inactive) | > 100 µM (inactive)
10 | Cc1cc(N(CCC#N)S(=O)(=O)c2ccccc2)ccc1C=O | > 100 µM (inactive) | > 100 µM (inactive) | > 100 | > 100 µM (inactive) | > 100 µM (inactive) | > 100 µM (inactive) | > 100 µM (inactive) | > 100 µM (inactive) | > 100 µM (inactive) | > 100 µM (inactive) | > 100 µM (inactive) | > 100 µM (inactive) |  | > 100 µM (inactive) | > 100 µM (inactive) | > 100 µM (inactive) | > 100 µM (inactive)
11 | CC(C)(C)NCC(COc1ccc([N+](=O)[O-])cc1)OP(c1ccccc1)c1ccccc1 (stereo unspecified) | 30.3 µM (inactive) | 11 µM (inactive) | 37.8 | 38.7 µM (inactive) | 20.6 µM (inactive) | 47.4 µM (inactive) | 27.7 µM (inactive) | 33.7 µM (inactive) | 29.9 µM (inactive) | 25 µM (inactive) | 53.3 µM (inactive) | 13.5 µM (inactive) |  |  | 82.4 µM (inactive) |  | 27.8 µM (inactive)
12 | Clc1ccc2c(c1)-c1c3c(nn1-c1ccccc1)-c1ccccc1SC3O2 (stereo unspecified) | > 100 µM (inactive) | 71.3 µM (inactive) |  |  | > 100 µM (inactive) | > 100 µM (inactive) | > 100 µM (inactive) | 82.6 µM (inactive) | > 100 µM (inactive) | > 100 µM (inactive) | > 100 µM (inactive) | > 100 µM (inactive) | 35.7 µM (inactive) |  | > 100 µM (inactive) |  | 44.9 µM (inactive)
13 | NC1CCC2(O)c3ccccc3C2C1 (stereo unspecified) | > 100 µM (inactive) | > 100 µM (inactive) | > 100 | > 100 µM (inactive) | > 100 µM (inactive) | > 100 µM (inactive) | > 100 µM (inactive) | > 100 µM (inactive) | > 100 µM (inactive) | > 100 µM (inactive) |  | > 100 µM (inactive) |  | > 100 µM (inactive) |  | > 100 µM (inactive) | > 100 µM (inactive)
14 | Cc1ccc(/N=N/c2c(C)nn(-c3ccccc3)c2-c2ccccc2)c(Br)c1 |  | 37.2 µM (inactive) | 28.2 | > 100 µM (inactive) | > 100 µM (inactive) | 63.5 µM (inactive) | 27.6 µM (inactive) | > 100 µM (inactive) | > 100 µM (inactive) | > 100 µM (inactive) | > 100 µM (inactive) |  | 40 µM (inactive) | > 100 µM (inactive) |  | 6.21 µM (inactive) | 21 µM (inactive)
15 | CC1C=CC(C)C2(O)C(=O)NC(O)C12 (stereo unspecified) | > 100 µM (inactive) |  | > 100 | > 100 µM (inactive) | > 100 µM (inactive) | > 100 µM (inactive) |  | > 100 µM (inactive) | > 100 µM (inactive) | > 100 µM (inactive) | > 100 µM (inactive) | > 100 µM (inactive) |  | > 100 µM (inactive) |  | > 100 µM (inactive) | > 100 µM (inactive)
